# Test results published in US20220280661A1, “GLUCOCORTICOID RECEPTOR RADIOLIGANDS AND METHODS FOR THEIR PREPARATION AND USE” (The Regents of the University of California, priority 2019, published 2022).
# What was measured:
# [1] = target: T1, full length human MR (Homo sapiens, UniProt P08235); assay: 3H-ligand displacement assay on cells, MR (HEK293 overexpressing MR); format: binding
# T1 construct: HEK293 transiently overexpressing full length human MR; expressed in transfected cells; host or cells: HEK293
# T1 sequence (P08235 1-984): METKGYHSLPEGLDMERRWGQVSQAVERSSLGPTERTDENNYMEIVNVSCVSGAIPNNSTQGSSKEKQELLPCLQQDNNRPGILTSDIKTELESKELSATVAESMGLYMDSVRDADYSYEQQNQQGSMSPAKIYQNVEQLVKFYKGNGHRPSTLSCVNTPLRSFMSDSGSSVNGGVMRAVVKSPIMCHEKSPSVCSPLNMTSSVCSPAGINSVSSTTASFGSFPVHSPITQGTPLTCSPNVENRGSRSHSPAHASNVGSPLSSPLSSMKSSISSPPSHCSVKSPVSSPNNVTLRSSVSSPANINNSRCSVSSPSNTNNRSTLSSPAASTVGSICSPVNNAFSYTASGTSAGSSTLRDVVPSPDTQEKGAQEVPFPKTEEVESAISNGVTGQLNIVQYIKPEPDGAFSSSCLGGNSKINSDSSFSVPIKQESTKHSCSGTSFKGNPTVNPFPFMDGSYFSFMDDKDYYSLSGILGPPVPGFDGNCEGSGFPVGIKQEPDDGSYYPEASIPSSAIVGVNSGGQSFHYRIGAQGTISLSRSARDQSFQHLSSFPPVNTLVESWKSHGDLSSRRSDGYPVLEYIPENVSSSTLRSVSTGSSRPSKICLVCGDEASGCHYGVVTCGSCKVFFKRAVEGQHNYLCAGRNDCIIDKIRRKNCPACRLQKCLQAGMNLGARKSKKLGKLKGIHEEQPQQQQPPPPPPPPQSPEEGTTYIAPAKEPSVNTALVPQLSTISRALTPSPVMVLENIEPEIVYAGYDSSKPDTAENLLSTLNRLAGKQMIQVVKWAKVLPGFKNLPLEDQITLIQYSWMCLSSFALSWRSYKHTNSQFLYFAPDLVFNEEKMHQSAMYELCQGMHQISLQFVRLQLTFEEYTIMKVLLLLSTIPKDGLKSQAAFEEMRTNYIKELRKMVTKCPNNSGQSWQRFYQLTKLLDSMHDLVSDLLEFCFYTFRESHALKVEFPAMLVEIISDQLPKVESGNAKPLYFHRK
# Method: (§1) The affinity of YJH08 for GR and the other type 1 subfamily 3 nuclear hormone receptors was evaluated using ^3H-ligand displacement assays on cells. The Kd for subfamily 3 class C nuclear hormone receptors was determined on cells by displacing ^3H-steroidal agonists for the respective receptor. […] The Kd was determined using the following cell lines: DU145 (GR), LNCaP-AR (AR), MCF7 (PR, ER), and HEK293 transiently overexpressing full length human MR.
# (§2) The cold ligands and ^3H-steroids were co-incubated on cells in PBS at room temperature for one hour. Following incubation, the cells were washed twice with ice cold PBS and the unbound activity was retained for analysis. The cells were lysed with 1 mL of 1M NaOH and collected. Bound and unbound fractions were counted in a liquid scintillation counter and expressed as a percentage of the total activity added per equal relative number of cells. […] These experiments were performed at three concentrations of experimental ligand (1 pM, 100 nM and 10 μM), and a linear extrapolation was used to subtract the non-specific component of binding from each treatment condition. The specific binding component was plotted against the log of the competing ligand and curve fit using a non-linear regression algorithm with PRISM software.
# [2] = target: T2, PR (Homo sapiens, UniProt P06401); assay: 3H-ligand displacement assay on cells, PR (MCF7); format: binding
# T2 construct: MCF7 (PR, ER); endogenous in cells; host or cells: MCF7
# T2 sequence (P06401 1-933): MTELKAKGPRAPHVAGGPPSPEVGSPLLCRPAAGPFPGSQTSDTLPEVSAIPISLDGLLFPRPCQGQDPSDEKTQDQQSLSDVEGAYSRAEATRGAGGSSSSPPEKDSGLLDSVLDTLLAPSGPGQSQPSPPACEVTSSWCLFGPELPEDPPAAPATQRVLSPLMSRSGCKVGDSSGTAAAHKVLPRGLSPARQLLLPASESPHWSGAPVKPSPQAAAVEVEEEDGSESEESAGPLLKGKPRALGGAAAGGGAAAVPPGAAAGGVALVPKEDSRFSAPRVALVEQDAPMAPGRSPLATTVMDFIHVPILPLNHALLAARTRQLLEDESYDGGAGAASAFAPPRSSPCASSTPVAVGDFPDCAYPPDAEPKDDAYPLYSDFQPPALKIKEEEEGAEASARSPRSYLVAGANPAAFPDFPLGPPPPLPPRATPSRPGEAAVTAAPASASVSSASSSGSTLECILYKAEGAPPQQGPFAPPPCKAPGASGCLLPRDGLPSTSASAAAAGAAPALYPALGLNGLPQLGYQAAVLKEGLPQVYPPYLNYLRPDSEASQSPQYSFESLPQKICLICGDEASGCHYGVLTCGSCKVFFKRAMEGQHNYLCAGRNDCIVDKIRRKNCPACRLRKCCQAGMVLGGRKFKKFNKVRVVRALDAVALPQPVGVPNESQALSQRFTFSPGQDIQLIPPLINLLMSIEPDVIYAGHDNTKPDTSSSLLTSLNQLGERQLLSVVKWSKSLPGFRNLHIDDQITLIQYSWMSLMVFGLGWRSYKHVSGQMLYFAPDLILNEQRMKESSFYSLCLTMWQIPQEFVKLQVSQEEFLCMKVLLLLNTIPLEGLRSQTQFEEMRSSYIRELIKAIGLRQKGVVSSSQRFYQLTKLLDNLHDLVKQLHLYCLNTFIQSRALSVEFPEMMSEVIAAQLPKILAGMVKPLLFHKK
# Method: as §1, §2
# [3] = system: PC3 tumors; assay: [18F]-YJH08 uptake in PC3 tumors implanted in the renal capsule; format: in vivo, mouse; details: renal capsule implant, nu/nu mice
# Method: For tumor imaging studies, male nu/nu mice were used for the renal capsule tumor implants. The mice were anesthetized with isofluorane (2-3%) and performed with a dorsal midline incision (0.5 cm). With pressure applied on the muscle wall, one kidney was pulled gently and carefully through the small incision. PC3 cells ([…] in 50 μL PBS) were injected under the kidney capsule, which was lifted from the kidney parenchyma. The kidney was placed into the mouse, and the incision closed with 3 surgical sutures. Carprofen (5-10 mg/kg) was administered to the mice during recovery. Mice were observed carefully over 24 hours for the signs of post-operative bleeding, pain and (or) other complications. After surgery, a 14 T Agilent small animal MRI was used to monitor the tumor progression. Animals were studied approximately 10 days post injection of tumor cells.
# Lastly, digital autoradiography of the affected kidney was applied to define relative uptake of the radiotracer in the tumor and normal kidney parenchyma (FIGS. 5B and 5C). The radiotracer uptake in the tumor was qualitatively much higher than the level observed in the kidney.
Kd [1] [nM],Kd [2] [nM],Structure (SMILES),radiotracer uptake in PC3 tumor [3] [% ID/g]
290,555,"COc1cccc2c1-c1ccc3c(c1C(Cc1ccc(F)cc1)O2)C(C)=CC(C)(C)N3 (racemic) [YJH08, 5-(4-fluorobenzyl)-10-methoxy-2,2,4-trimethyl-2,5-dihydro-1H-chromeno[3,4-f]quinoline]",
,,"COc1cccc2c1-c1ccc3c(c1C(Cc1ccc([18F])cc1)O2)C(C)=CC(C)(C)N3 (racemic) [[18F]-YJH08, [^18F]-5-(4-fluorobenzyl)-10-methoxy-2,2,4-trimethyl-2,5-dihydro-1H-chromeno[3,4-f]quinoline]",~3
